Tests used:
BAG3 full-length = target: T1, BAG3 full-length (Homo sapiens, UniProt O95817); experiment: SPR assay on BAG3 full-length protein; conditions: Biacore T200, 0 to 100 µM, 25 °C, 1:1 interaction model, n.b. = no binding, read-out: BAG3 FULL KD (µM) ± SD
T1 construct: both the full-length BAG3 protein and its BAG domain; purchased Novus Biologicals (Littleton, CO, USA)
Procedure: (§1) In this study, we employed SPR experiments to evaluate the interactions between synthesized compounds (1–14) and both the full-length BAG3 protein and its BAG domain. Only the compounds that successfully bound to the full-length BAG3 protein were tested for their interaction with the BAG domain. Protein immobilization was achieved using the amide coupling method, and the compounds were tested at ten different concentrations, ranging from 0 to 100 µM. A known binder of BAG3-BD, LK4 ((Z)-ethyl 2-(5-(3,4-dihydroxybenzylidene)-2,4-dioxothiazolidin-3yl)acetate), was used as a positive control. […] Compound 14 also bound the target but with slightly higher KD values, still within the micromolar range. The three identified compounds were further investigated to understand whether this binding induced an effect on BAG3 protein functions. The KD values reported in Table 1 for the known inhibitor LK4 differ from those in previous studies due to the use of a newer-generation instrument for the SPR experiments. The earlier experiments utilized the Biacore 3000, whereas the current study employed the Biacore T200. While ligand binding was confirmed in both sets of experiments, the slightly different KD values are attributed to the enhanced sensitivity of the Biacore T200.
(§2) Recombinant human BAG3 protein (Bcl2-associated athanogene 3) was sourced from Novus Biologicals (Littleton, CO, USA), while the BAG3 domain (BAG3-BD) was procured from ARETA International S.r.l. (Gerenzano, Italy). We utilized (Z)-ethyl 2-(5-(3,4-dihydroxybenzylidene)-2,4-dioxothiazolidin-3-yl)acetate (LK4), a known BAG3 inhibitor previously identified by our group. Surface Plasmon Resonance (SPR) spectroscopy was employed to assess the affinity of synthesized molecules for BAG3 and BAG-BD using a Biacore T200 optical biosensor equipped with CM5 sensor chips (Cytiva, Marlborough, MA, USA). BAG3 and BAG-BD were immobilized on the CM5 sensor chip using standard amine-coupling protocols. BAG3 protein (0.067 μg/μL in 10 mM CH3COONa, pH 4.5) was immobilized at a flow rate of 10 μL/min, resulting in a density of 14 kRU. The BAG3 domain (0.38 μg/μL in 10 mM CH3COONa, pH 4.5) was immobilized under similar conditions, achieving a density of 4 kRU. For the experiments, BAG3 and BAG-BD surfaces, along with an unmodified reference surface, were prepared for simultaneous analyses.
Compounds 1–14 and LK4 were dissolved to 10 mM in 100% DMSO and then diluted 1:20 (v/v) in PBS-P buffer (0.2 M phosphate buffer, 27 mM KCl, 1.37 M NaCl, 0.5% surfactant P20) to achieve a final DMSO concentration of 5.0%. These compounds were injected in a concentration series (1:2 dilution, 10 different concentrations) ranging from 0 to 100 μM, prepared in 96-well plates. SPR experiments were conducted at 25 °C with a flow rate of 20 μL/min, featuring 90 s of association and 400 s of dissociation monitoring. Changes in mass, reflected as resonance units (RU), were recorded to determine binding responses. KD values were calculated using Biaevaluation software 3.2 by globally fitting the double-referenced association and dissociation data to a 1:1 interaction model. See Supplementary Materials for all the sensorgrams (Figures S43–S50).

HeLa cells = experiment: Cell cycle and hypodiploid nuclei analysis by PI staining flow cytometry; assay type: cell-based, human; conditions: 72 h, all tested concentrations (50, 30, 20 µM)
Procedure: Given BAG3’s well-documented anti-apoptotic role, annexin V-FITC/PI staining was performed to evaluate the effects of compound 10 on cell apoptosis. […] Specifically, at 50 µM, 81.0 ± 3.89% of the cells were apoptotic (p < 0.001 vs. Ctrl); at 30 µM, 70.5 ± 4.56% were apoptotic (p < 0.01 vs. Ctrl); and at 20 µM, 51.5 ± 2.23% were apoptotic (p < 0.05 vs. Ctrl) (Figure 3A,B).
Hypodiploid nuclei were analyzed using PI staining by flow cytometry. HeLa cells (1 × 10^5 cells/well) were grown in 12-well plates and allowed to adhere for 24 h. Subsequently, the medium was replaced with fresh medium, and the cells were treated for 72 h with compound 10 at concentrations of 20, 30, and 50 µM, 0.1% (v/v) DMSO (negative control), and 10% (v/v) DMSO (positive control). Following treatment, the culture medium was replaced, and the cells were washed twice with PBS. The cells were then suspended in […] of a solution containing 50 mg/L PI, 0.1% (w/v) sodium citrate, and 0.1% Triton X-100. […] After incubation at 4 °C for 30 min in the dark, cell nuclei were analyzed using a Becton Dickinson FACS flow cytometer (Franklin Lakes, NJ, USA) with the Cell Quest program, and the DNA content of the nuclei was recorded. Cellular debris was excluded from the analysis by increasing the forward scatter threshold, and the percentages of cells in the hypodiploid region (sub-G0/G1), G1, S, and G2 regions were calculated. […]

BAG3-BD = target: T2, BAG3-BD (Homo sapiens, UniProt O95817); experiment: SPR assay on BAG domain of BAG3 (BAG3-BD); assay type: binding; conditions: Biacore T200, 0 to 100 µM, 25 °C, 1:1 interaction model, read-out: BAG DOMAIN KD (µM) ± SD
T2 construct: the BAG3 domain (BAG3-BD) was procured from ARETA International S.r.l; purchased ARETA International S.r.l; (Gerenzano, Italy)
T2 sequence (O95817 421-498 limits assumed): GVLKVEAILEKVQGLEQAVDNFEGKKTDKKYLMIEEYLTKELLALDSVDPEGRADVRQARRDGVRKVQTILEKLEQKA
Procedure: as §1
as §2, with “For the experiments, BAG3 and BAG-BD surfaces, along with an unmodified reference surface, were prepared for simultaneous analyses.” left out
Compounds 1–14 and LK4 were dissolved to 10 mM in 100% DMSO and then diluted 1:20 (v/v) in PBS-P buffer (0.2 M phosphate buffer, 27 mM KCl, 1.37 M NaCl, 0.5% surfactant P20) to achieve a final DMSO concentration of 5.0%. […] Changes in mass, reflected as resonance units (RU), were recorded to determine binding responses. KD values were calculated using Biaevaluation software 3.2 by globally fitting the double-referenced association and dissociation data to a 1:1 interaction model. […]

T1 sequence (O95817 whole entry, the tested form may be a part): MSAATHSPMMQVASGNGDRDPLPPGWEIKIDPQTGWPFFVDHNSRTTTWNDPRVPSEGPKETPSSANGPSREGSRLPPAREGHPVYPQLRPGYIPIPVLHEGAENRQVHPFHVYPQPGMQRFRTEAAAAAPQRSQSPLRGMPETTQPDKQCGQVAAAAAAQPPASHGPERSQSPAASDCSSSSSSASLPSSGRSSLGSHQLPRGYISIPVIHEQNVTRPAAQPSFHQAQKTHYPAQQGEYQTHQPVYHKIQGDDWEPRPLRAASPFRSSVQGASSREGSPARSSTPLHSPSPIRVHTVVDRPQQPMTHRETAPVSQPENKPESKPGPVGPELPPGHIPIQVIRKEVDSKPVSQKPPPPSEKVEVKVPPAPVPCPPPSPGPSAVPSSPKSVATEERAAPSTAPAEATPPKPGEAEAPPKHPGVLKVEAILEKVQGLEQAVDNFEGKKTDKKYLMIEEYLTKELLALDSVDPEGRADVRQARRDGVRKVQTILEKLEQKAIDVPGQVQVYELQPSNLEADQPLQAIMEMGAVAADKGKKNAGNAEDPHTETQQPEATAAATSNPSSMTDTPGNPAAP

CC(C)Nc1c(-c2ccccc2Br)nc2ccc(Cl)cn12 [Compound 10, 2-(2-bromophenyl)-6-chloro-N-isopropylimidazo[1,2-a]pyridin-3-amine]
Kd (BAG3 full-length): 33.5 ± 0.21 µM | cell cycle arrest (HeLa cells): consistent and significant cell cycle arrest | hypodiploid nuclei (HeLa cells): increase in hypodiploid nuclei | Kd (BAG3-BD): 15.7 ± 1.44 µM
